Results taken from publication PMC3855825 (Molecular and biochemical parasitology, 2012).
Entries after “also recorded” stand apart in the source; their conditions may differ. Like-named read-outs stand apart in the source and are kept apart here.

What was measured:
TgDHOD-VSSM = molecular target: T1, TgDHOD-VSSM (Toxoplasma gondii, UniProt Q8MXD1); assay: Use of electron acceptors and substrate kinetics of TgDHOD-VSSM
T1 sequence (Q8MXD1 178-592): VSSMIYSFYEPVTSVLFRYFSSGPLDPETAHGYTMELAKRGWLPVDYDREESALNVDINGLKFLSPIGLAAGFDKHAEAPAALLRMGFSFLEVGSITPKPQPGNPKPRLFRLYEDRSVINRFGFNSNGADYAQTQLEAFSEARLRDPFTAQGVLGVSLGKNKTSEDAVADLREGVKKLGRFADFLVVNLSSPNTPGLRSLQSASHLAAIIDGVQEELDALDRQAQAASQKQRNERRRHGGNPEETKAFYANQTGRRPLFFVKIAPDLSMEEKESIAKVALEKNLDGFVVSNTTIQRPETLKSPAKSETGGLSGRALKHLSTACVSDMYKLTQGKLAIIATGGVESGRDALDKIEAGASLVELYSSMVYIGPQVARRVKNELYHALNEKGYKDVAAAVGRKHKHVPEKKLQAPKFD

HsDHOD [1] = details: read-out: HsDHOD IC50, cited from earlier work
TgDHOD = TgDHOD (Toxoplasma gondii, UniProt Q8MXD1); assay: Inhibition of recombinant TgDHOD-VSSM, DCIP reduction assay with QD; details: for Effect on TgDHOD activity (in words): no concentration stated at the place; for Type of inhibition of TgDHOD (best fit): QD as variable substrate, saturating dihydroorotate, SigmaPlot12 fit; for Inhibition of TgDHOD (in words): inhibitor 1 mM, DCIP reduction assay with QD
PfDHOD [2] = details: read-out: PfDHOD IC50, cited from earlier work
PfDHOD [3] = details: read-out: Km for quinone, recombinant PfDHOD; cited from earlier work
HsDHOD [4] = details: read-out: Km for QD, HsDHOD; cited from earlier work
human complex III = details: read-out: IC50 for human complex III; cited from earlier work
[5] = system: Saccharomyces cerevisiae complex III; details: read-out: IC50 for Saccharomyces cerevisiae complex III; cited from earlier work
[6] = read-out: TgDHOD activity compared to the control

Question: With `O=C1C(Cl)=CC(=Nc2ccc(O)cc2)C=C1Cl` [DCIP, 2,6 dichlorophenol-indophenol] as the molecule, how does the “kcat, background activity in the absence of ubiquinone” value (TgDHOD-VSSM; DCIP as only electron acceptor, 0.1 mM, 1 mM dihydroorotate) read?
Answer: 28.1 ± 0.7 s⁻¹

Question: What does the source list for `Cc1cc(Nc2cc(F)c(C(F)(F)F)c(F)c2)n2ncnc2n1` [DSM190, N-(3,5-difluoro-4-(trifluoromethyl)phenyl)-5-methyl-[1,2,4]triazolo[1,5-a]pyrimidin-7-amine]?
Answer: IC50 (HsDHOD [1]; ref 16 Gujjar et al., 2011): > 30000 nM; Effect on TgDHOD activity (in words) (TgDHOD): poor inhibitor; IC50 (PfDHOD [2]; ref 16 Gujjar et al., 2011): 190 nM

Question: With `O=C(O)/C=C/C(=O)O` [Fumarate] as the molecule, how does the “Activity as electron acceptor for TgDHOD (in words)” value (TgDHOD-VSSM) read?
Answer: poor electron acceptor; also recorded: negligible activity

Question: What does the source list for `COc1ccccc1-c1ccc(NC(=O)C(C#N)=C(C)O)c(Cl)c1` [MD209, N-(3-chloro-2′-methoxybiphenyl-4-yl)-2-cyano-3-hydroxybut-2-enamide]?
Answer: IC50 (HsDHOD [1]; ref 17 Davies et al., 2009): 200 nM; Ki (TgDHOD): 18000 nM; Type of inhibition of TgDHOD (best fit) (TgDHOD): partial mixed inhibition; IC50 (PfDHOD [2]; ref 17 Davies et al., 2009): 8600 nM

Question: With `CC(O)=C(C#N)C(=O)Nc1ccc(-c2cccc(Cl)c2Cl)cc1Cl` [MD249] as the molecule, how does the IC50 (HsDHOD [1]; ref 17 Davies et al., 2009) read?
Answer: 330 nM

Question: And the “Type of inhibition of TgDHOD (best fit)” value (TgDHOD)?
Answer: partial mixed inhibition

Question: And the IC50 (PfDHOD [2]; ref 17 Davies et al., 2009)?
Answer: 9900 nM

Question: Which Km (PfDHOD [3]) does the source give for `CC1=CC(=O)c2ccccc2C1=O` [Menadione, 2-methyl-1,4-naphthoquinone] here?
Answer: 55 to 115 µM

Question: With `COC1=C(OC)C(=O)C(C)=CC1=O` [Q0, 2,3-dimethoxy-5-methyl-1,4-benzoquinone] as the molecule, how does the Km (PfDHOD [3]) read?
Answer: 55 to 115 µM

Question: For `CCCCCCCCCCC1=C(C)C(=O)C(OC)=C(OC)C1=O` [QD, 2,3-dimethoxy-5-methyl-6-decyl-1,4-benzoquinone], which Km (HsDHOD [4]) is on record?
Answer: 14 µM

Question: With `O=C(CC(=O)C(F)(F)F)c1cccs1` [TTFA, 4,4,4-trifluoro-1-(thienyl)-1,3-butanedione] as the molecule, how does the “Inhibition of TgDHOD (in words)” value (TgDHOD) read?
Answer: No significant inhibition

Question: And the “Effect on TgDHOD activity (in words)” value (TgDHOD)?
Answer: not significantly affected; also recorded: no effect

Question: With `O=C1C(O)=C([C@H]2CC[C@H](c3ccc(Cl)cc3)CC2)C(=O)c2ccccc21` [atovaquone, trans-2-[4-(chlorophenyl)cyclohexyl]-3-hydroxy-1,4-naphthoquinone] as the molecule, how does the IC50 (human complex III) read?
Answer: 400 nM

Question: What about the IC50 [5] of the same molecule?
Answer: 40 nM

Question: And the “Effect on TgDHOD activity (in words)” value (TgDHOD)?
Answer: not significantly affected

Question: What about the “Effect on TgDHOD activity (in words)” value (TgDHOD; listed as Atovaquone) of the same molecule?
Answer: little effect

Question: And the remaining activity at 100 µM (TgDHOD; [6])?
Answer: 80.6%

Question: What does the source list for `Cc1c(-c2ccc(-c3ccccc3F)cc2)nc2ccc(F)cc2c1C(=O)O` [brequinar, 6-fluoro-2-(2′-fluoro-1,1-biphenyl-4-yl)-3-methyl-4-quinoline carboxylic acid]?
Answer: Inhibition of TgDHOD (in words) (TgDHOD): No significant inhibition; Effect on TgDHOD activity (in words) (TgDHOD): not significantly affected; also recorded: not efficient inhibitors

Question: For `COc1cc(-c2ccc(Nc3ccccc3C(=O)O)c(OC)c2)ccc1Nc1ccccc1C(=O)O` [redoxal, (2,2′-[3,3′-dimethoxy[1,1′-biphenyl]-4,4′-diyl]diimino)bis-benzoic acid], which “Effect on TgDHOD activity (in words)” value (TgDHOD) is on record?
Answer: not efficient inhibitors

Question: Which “Effect on TgDHOD activity (in words)” value (TgDHOD) does the source give for `Cc1cc(-n2c(=O)[nH]c(=O)n(C)c2=O)ccc1Oc1ccc(SC(F)(F)F)cc1` [toltrazuril, 1-(3-methyl-4(4′-trifluoromethylthiophenoxy)phenyl)-3-methyl-1,3,5-triazine-2,4,6-(1H,3H,5H)-trione] here?
Answer: little effect

Question: What about the remaining activity at 500 µM (TgDHOD; [6]) of the same molecule?
Answer: 82.9%
